Data from article PMC5218480 (PLoS ONE, 2017).

System: MV-4-11 cells
Test: Gene expression microarray analysis (Affymetrix PrimeView) and GSEA
Assay type: cell-based, human
Set-up: RFU PODN (11730768_x_at) / Fold change /veh PODN (11730768_x_at) / RFU LINC00158 (11744669_a_at) / Fold change /veh LINC00158 (11744669_a_at) / RFU DUSP10 (11751237_a_at) / Fold change /veh DUSP10 (11751237_a_at) / RFU ID3 (11757404_x_at) / Fold change /veh ID3 (11757404_x_at) / RFU PLEKHG5 (11737974_s_at) / Fold change /veh PLEKHG5 (11737974_s_at) / RFU LRRC4B (11730491_at) / Fold change /veh LRRC4B (11730491_at) / RFU GIMAP4 (11747438_a_at) / Fold change /veh GIMAP4 (11747438_a_at) / RFU KRT8 (11758183_x_at) / Fold change /veh KRT8 (11758183_x_at) / RFU CNN1 (11734310_a_at) / Fold change /veh CNN1 (11734310_a_at) / RFU VPS37D (11726825_at) / Fold change /veh VPS37D (11726825_at) / RFU C10orf10 (11716522_x_at) / Fold change /veh C10orf10 (11716522_x_at) / RFU KIR2DL2 /// KIR2DL4 /// KIR2DL5A /// KIR2DL5B /// KIR2DS1 /// KIR2DS2 /// KIR2DS3 /// KIR2DS4 /// KIR3DL3 /// KIR3DL3 /// KIR3DS1 (11738374_at) / Fold change /veh KIR2DL2 /// KIR2DL4 /// KIR2DL5A /// KIR2DL5B /// KIR2DS1 /// KIR2DS2 /// KIR2DS3 /// KIR2DS4 /// KIR3DL3 /// KIR3DL3 /// KIR3DS1 (11738374_at) / RFU C1QL1 (11718748_at) / Fold change /veh C1QL1 (11718748_at) / RFU TMPRSS4 (11747572_a_at) / Fold change /veh TMPRSS4 (11747572_a_at) / RFU HAMP (11756126_x_at) / Fold change /veh HAMP (11756126_x_at) / RFU RNFT2 (11725882_a_at) / Fold change /veh RNFT2 (11725882_a_at) / RFU NR4A2 (11747474_a_at) / Fold change /veh NR4A2 (11747474_a_at) / RFU ABCC12 (11746883_a_at) / Fold change /veh ABCC12 (11746883_a_at) / RFU TMEM136 (11760407_x_at) / Fold change /veh TMEM136 (11760407_x_at) / RFU CLDN22 /// WWC2 (11732394_at) / Fold change /veh CLDN22 /// WWC2 (11732394_at) / RFU HLA-DPB1 (11760878_x_at) / Fold change /veh HLA-DPB1 (11760878_x_at) / RFU SPINT1 (11716480_a_at) / Fold change /veh SPINT1 (11716480_a_at) / RFU GAP43 (11754022_s_at) / Fold change /veh GAP43 (11754022_s_at) / RFU A4GNT (11735810_at) / Fold change /veh A4GNT (11735810_at) / RFU PRB3 (11715151_x_at) / Fold change /veh PRB3 (11715151_x_at) / RFU TUBB4B (11761932_at) / Fold change /veh TUBB4B (11761932_at) / RFU CAPN14 (11732068_a_at) / Fold change /veh CAPN14 (11732068_a_at) / RFU TMCC2 (11721928_a_at) / Fold change /veh TMCC2 (11721928_a_at) / RFU IRGQ (11745062_a_at) / Fold change /veh IRGQ (11745062_a_at) / RFU FAM174B (11720279_a_at) / Fold change /veh FAM174B (11720279_a_at) / RFU TMPRSS4 (11748680_a_at) / Fold change /veh TMPRSS4 (11748680_a_at) / RFU FAM212B (11763350_a_at) / Fold change /veh FAM212B (11763350_a_at) / RFU PLEKHG5 (11743358_a_at) / Fold change /veh PLEKHG5 (11743358_a_at) / RFU ZSCAN30 (11745921_a_at) / Fold change /veh ZSCAN30 (11745921_a_at) / RFU CMKLR1 (11741424_a_at) / Fold change /veh CMKLR1 (11741424_a_at) / RFU LOC101060620 /// MAPK8IP1 (11723275_at) / Fold change /veh LOC101060620 /// MAPK8IP1 (11723275_at) / RFU SPTSSB (11747773_x_at) / Fold change /veh SPTSSB (11747773_x_at) / RFU PRSS12 (11739890_at) / Fold change /veh PRSS12 (11739890_at) / RFU BIN1 (11741810_x_at) / Fold change /veh BIN1 (11741810_x_at) / RFU WNT11 (11732464_a_at) / Fold change /veh WNT11 (11732464_a_at) / RFU C10orf10 (11716521_a_at) / Fold change /veh C10orf10 (11716521_a_at) / RFU C5orf56 (11738089_at) / Fold change /veh C5orf56 (11738089_at) / RFU CYB561 (11721691_x_at) / Fold change /veh CYB561 (11721691_x_at) / RFU ANKRD19P (11752326_a_at) / Fold change /veh ANKRD19P (11752326_a_at) / RFU OR2T12 /// OR2T33 /// OR2T8 (11738714_s_at) / Fold change /veh OR2T12 /// OR2T33 /// OR2T8 (11738714_s_at) / RFU VCAN (11748164_a_at) / Fold change /veh VCAN (11748164_a_at) / RFU JSRP1 (11732532_at) / Fold change /veh JSRP1 (11732532_at) / RFU KRTAP10-11 (11738290_x_at) / Fold change /veh KRTAP10-11 (11738290_x_at) / RFU MYO3A (11730013_a_at) / Fold change /veh MYO3A (11730013_a_at) / RFU EBF3 (11725865_a_at) / Fold change /veh EBF3 (11725865_a_at) / RFU CAMK2N1 (11719241_x_at) / Fold change /veh CAMK2N1 (11719241_x_at) / RFU C5orf56 (11738088_a_at) / Fold change /veh C5orf56 (11738088_a_at) / RFU OLFML3 (11715873_a_at) / Fold change /veh OLFML3 (11715873_a_at) / RFU LOC100653217 /// NTM (11731650_a_at) / Fold change /veh LOC100653217 /// NTM (11731650_a_at) / RFU MAPK11 (11762145_a_at) / Fold change /veh MAPK11 (11762145_a_at) / RFU FIZ1 (11724087_x_at) / Fold change /veh FIZ1 (11724087_x_at) / RFU OASL (11726364_x_at) / Fold change /veh OASL (11726364_x_at) / RFU SOX15 (11748057_x_at) / Fold change /veh SOX15 (11748057_x_at) / RFU CD79A (11719716_a_at) / Fold change /veh CD79A (11719716_a_at) / RFU HIST1H1D (11736915_at) / Fold change /veh HIST1H1D (11736915_at) / RFU CASKIN2 (11723855_a_at) / Fold change /veh CASKIN2 (11723855_a_at) / RFU LOC730098 (11760151_x_at) / Fold change /veh LOC730098 (11760151_x_at) / RFU OR4N2 (11742367_at) / Fold change /veh OR4N2 (11742367_at) / RFU PRRT2 (11749266_a_at) / Fold change /veh PRRT2 (11749266_a_at) / RFU SNX32 (11753110_a_at) / Fold change /veh SNX32 (11753110_a_at) / RFU CDHR5 (11726645_a_at) / Fold change /veh CDHR5 (11726645_a_at) / RFU RCAN1 (11760418_a_at) / Fold change /veh RCAN1 (11760418_a_at) / RFU FAM167A (11723789_a_at) / Fold change /veh FAM167A (11723789_a_at) / RFU FAM26E (11764081_at) / Fold change /veh FAM26E (11764081_at) / RFU ISYNA1 (11749810_s_at) / Fold change /veh ISYNA1 (11749810_s_at) / RFU ACY1 (11761880_at) / Fold change /veh ACY1 (11761880_at) / RFU 11764098_at / Fold change /veh 11764098_at / RFU SAMD14 (11745864_x_at) / Fold change /veh SAMD14 (11745864_x_at) / RFU NPB (11741838_a_at) / Fold change /veh NPB (11741838_a_at) / RFU TMPRSS6 (11731388_a_at) / Fold change /veh TMPRSS6 (11731388_a_at) / RFU KRTAP10-2 (11738614_at) / Fold change /veh KRTAP10-2 (11738614_at) / RFU ARHGAP8 /// PRR5-ARHGAP8 (11727945_x_at) / Fold change /veh ARHGAP8 /// PRR5-ARHGAP8 (11727945_x_at) / RFU KRTAP5-7 /// NADSYN1 (11734609_at) / Fold change /veh KRTAP5-7 /// NADSYN1 (11734609_at) / RFU RASL12 (11751679_a_at) / Fold change /veh RASL12 (11751679_a_at) / RFU CDKN2B (11736163_a_at) / Fold change /veh CDKN2B (11736163_a_at) / RFU PRF1 (11729649_at) / Fold change /veh PRF1 (11729649_at) / RFU, ZNF638 /// ZNF638-IT1 / Fold change vs veh, ZNF638 /// ZNF638-IT1 / RFU, PANK3 / Fold change vs veh, PANK3 / RFU, SH3YL1 / Fold change vs veh, SH3YL1 / RFU, ZEB2 / Fold change vs veh, ZEB2 / RFU, NRIP1 / Fold change vs veh, NRIP1 / RFU, PTTG1IP / Fold change vs veh, PTTG1IP / RFU, CAPN2 / Fold change vs veh, CAPN2 / RFU, MED14 / Fold change vs veh, MED14 / RFU, SNORA58 / Fold change vs veh, SNORA58 / RFU, C1orf63 / Fold change vs veh, C1orf63 / RFU, LRRFIP1 / Fold change vs veh, LRRFIP1 / RFU, NDUFAF7 / Fold change vs veh, NDUFAF7 / RFU, SLC12A2 / Fold change vs veh, SLC12A2 / RFU, IBTK / Fold change vs veh, IBTK / RFU, ESF1 / Fold change vs veh, ESF1 / Fold change vs veh, TMEM50B / RFU, TAOK1 / Fold change vs veh, TAOK1 / RFU, ACBD3 / Fold change vs veh, ACBD3 / RFU, TMA16 / Fold change vs veh, TMA16 / RFU, RWDD3 / Fold change vs veh, RWDD3 / RFU, BCAT1 / Fold change vs veh, BCAT1 / RFU, EDEM3 / Fold change vs veh, EDEM3 / RFU, TMEM33 / Fold change vs veh, TMEM33 / RFU, WDR75 / Fold change vs veh, WDR75 / RFU, AHCTF1 / Fold change vs veh, AHCTF1 / RFU, TFRC / Fold change vs veh, TFRC / RFU, ZDHHC17 / Fold change vs veh, ZDHHC17 / RFU, NOM1 / Fold change vs veh, NOM1 / RFU, ARL8B / Fold change vs veh, ARL8B / RFU, ZBTB11 / Fold change vs veh, ZBTB11 / RFU, TAMM41 / Fold change vs veh, TAMM41 / RFU, KIAA1704 /// LOC100996395 / Fold change vs veh, KIAA1704 /// LOC100996395 / RFU, ING1 / Fold change vs veh, ING1 / RFU, TRMT61B / Fold change vs veh, TRMT61B / RFU, FUBP3 / Fold change vs veh, FUBP3 / RFU, TP53 / Fold change vs veh, TP53 / RFU, TNKS2 / Fold change vs veh, TNKS2 / RFU, ZFP14 / Fold change vs veh, ZFP14 / RFU, ACTR2 / Fold change vs veh, ACTR2 / RFU, PPP3R1 / Fold change vs veh, PPP3R1 / RFU, PIK3R1 / Fold change vs veh, PIK3R1 / RFU, HNRNPA1 / Fold change vs veh, HNRNPA1 / RFU, RNF170 / Fold change vs veh, RNF170 / RFU, ZNF28 / Fold change vs veh, ZNF28 / RFU, RNGTT / Fold change vs veh, RNGTT / RFU, OGT / Fold change vs veh, OGT / RFU, BRD1 / Fold change vs veh, BRD1 / RFU, MARS / Fold change vs veh, MARS / RFU, ZNF655 / Fold change vs veh, ZNF655 / RFU, FAHD1 / Fold change vs veh, FAHD1 / RFU, BDP1 / Fold change vs veh, BDP1 / RFU, LRRCC1 / Fold change vs veh, LRRCC1 / RFU, ARID1A / Fold change vs veh, ARID1A / RFU, ZNF146 / Fold change vs veh, ZNF146 / RFU, ZNF330 / Fold change vs veh, ZNF330 / RFU, GPN3 / Fold change vs veh, GPN3 / RFU, C9orf123 / Fold change vs veh, C9orf123 / RFU, N4BP2L2 / Fold change vs veh, N4BP2L2 / RFU, ARFIP1 / Fold change vs veh, ARFIP1 / RFU, FAM179B / Fold change vs veh, FAM179B / RFU, BCL10 / Fold change vs veh, BCL10 / RFU, UHRF1BP1L / Fold change vs veh, UHRF1BP1L / RFU, BET1 / Fold change vs veh, BET1 / RFU, CNOT2 / Fold change vs veh, CNOT2 / RFU, ZNF268 / Fold change vs veh, ZNF268 / Fold change vs veh, ZNF507 / RFU, DGCR2 / Fold change vs veh, DGCR2 / RFU, WDSUB1 / Fold change vs veh, WDSUB1 / Fold change vs veh, HSP90B1 /// MIR3652 / RFU, ADSS / Fold change vs veh, ADSS / RFU, GK / Fold change vs veh, GK / RFU, ZNF148 / Fold change vs veh, ZNF148 / RFU, TAF9 / Fold change vs veh, TAF9 / RFU, SLC1A5 / Fold change vs veh, SLC1A5 / RFU, SLMO2 / Fold change vs veh, SLMO2 / RFU, ABCC4 / Fold change vs veh, ABCC4 / RFU, LOC101060439 /// RAP1B / Fold change vs veh, LOC101060439 /// RAP1B / RFU, RFX7 / Fold change vs veh, RFX7 / RFU, GTPBP10 / Fold change vs veh, GTPBP10 / RFU, CNEP1R1 / Fold change vs veh, CNEP1R1 / RFU, BIVM-ERCC5 /// ERCC5 / Fold change vs veh, BIVM-ERCC5 /// ERCC5 / RFU, ILF3 / Fold change vs veh, ILF3 / RFU 11762660_at / Fold change /veh 11762660_at / RFU VCAN (11757783_s_at) / Fold change /veh VCAN (11757783_s_at) / RFU DDX43 (11728927_at) / Fold change /veh DDX43 (11728927_at) / RFU KRT8 (11758188_x_at) / Fold change /veh KRT8 (11758188_x_at) / RFU NKD1 (11759106_at) / Fold change /veh NKD1 (11759106_at) / RFU SRD5A1 (11742802_a_at) / Fold change /veh SRD5A1 (11742802_a_at) / RFU TPSAB1 /// TPSB2 (11721975_s_at) / Fold change /veh TPSAB1 /// TPSB2 (11721975_s_at) / RFU GSTM3 (11746129_a_at) / Fold change /veh GSTM3 (11746129_a_at) / RFU IL23R (11737362_x_at) / Fold change /veh IL23R (11737362_x_at) / RFU TMEM51 (11727254_a_at) / Fold change /veh TMEM51 (11727254_a_at) / RFU PIWIL2 (11732686_x_at) / Fold change /veh PIWIL2 (11732686_x_at) / RFU ORM1 (11744905_x_at) / Fold change /veh ORM1 (11744905_x_at) / RFU CCDC152 (11743942_at) / Fold change /veh CCDC152 (11743942_at) / RFU ECM1 (11717891_a_at) / Fold change /veh ECM1 (11717891_a_at) / RFU IL23R (11748794_a_at) / Fold change /veh IL23R (11748794_a_at) / RFU TNFAIP8L3 (11732012_x_at) / Fold change /veh TNFAIP8L3 (11732012_x_at) / RFU MBOAT4 (11741988_at) / Fold change /veh MBOAT4 (11741988_at) / RFU 11764193_at / Fold change /veh 11764193_at / RFU TMEM53 (11763286_at) / Fold change /veh TMEM53 (11763286_at) / RFU MAGEB2 (11727129_at) / Fold change /veh MAGEB2 (11727129_at) / RFU TMEM200A (11744735_a_at) / Fold change /veh TMEM200A (11744735_a_at) / RFU CCDC152 (11751479_a_at) / Fold change /veh CCDC152 (11751479_a_at) / RFU FAM211A (11726209_a_at) / Fold change /veh FAM211A (11726209_a_at) / RFU RGS16 (11746705_a_at) / Fold change /veh RGS16 (11746705_a_at) / RFU VCAN (11755009_s_at) / Fold change /veh VCAN (11755009_s_at) / RFU RHOB (11743442_s_at) / Fold change /veh RHOB (11743442_s_at) / RFU RGS16 (11720943_a_at) / Fold change /veh RGS16 (11720943_a_at) / RFU RGS16 (11720944_at) / Fold change /veh RGS16 (11720944_at) / RFU, VPS4B / Fold change vs veh, VPS4B / RFU, CREB1 / Fold change vs veh, CREB1 / RFU, DNAJC13 / Fold change vs veh, DNAJC13 / RFU, GNAQ / Fold change vs veh, GNAQ / RFU, CDK5R1 / Fold change vs veh, CDK5R1 / RFU, ZRANB3 / Fold change vs veh, ZRANB3 / RFU, CUL4A / Fold change vs veh, CUL4A / RFU, CCNY / Fold change vs veh, CCNY / RFU, UFL1 / Fold change vs veh, UFL1 / RFU, COG3 / Fold change vs veh, COG3 / RFU, DIAPH2 / Fold change vs veh, DIAPH2 / RFU, SKA2 / Fold change vs veh, SKA2 / RFU, AFF3 / Fold change vs veh, AFF3 / RFU, LMF1 / Fold change vs veh, LMF1 / RFU, IPO11 / Fold change vs veh, IPO11 / RFU, DFFB / Fold change vs veh, DFFB / RFU, FOXP1 / Fold change vs veh, FOXP1 / RFU, CARD8 / Fold change vs veh, CARD8 / RFU, STRN3 / Fold change vs veh, STRN3 / RFU, ADK / Fold change vs veh, ADK / RFU, RASSF2 / Fold change vs veh, RASSF2 / RFU, WIPF1 / Fold change vs veh, WIPF1 / RFU, LARP1B / Fold change vs veh, LARP1B / RFU, RASA1 / Fold change vs veh, RASA1 / RFU, RB1 / Fold change vs veh, RB1 / RFU, PPFIA1 / Fold change vs veh, PPFIA1 / RFU, MAT2A / Fold change vs veh, MAT2A / RFU, CCT5 / Fold change vs veh, CCT5 / RFU, WDR92 / Fold change vs veh, WDR92 / RFU, CUX1 / Fold change vs veh, CUX1 / RFU, TTC7A / Fold change vs veh, TTC7A / RFU, TMEM135 / Fold change vs veh, TMEM135 / RFU, DEPTOR / Fold change vs veh, DEPTOR / RFU, CPM / Fold change vs veh, CPM / RFU, DNAJB6 / Fold change vs veh, DNAJB6 / RFU, CACNA2D3 / Fold change vs veh, CACNA2D3 / RFU, DTX4 / Fold change vs veh, DTX4 / RFU, TFCP2 / Fold change vs veh, TFCP2 / RFU, GMCL1 /// GMCL1P1 / Fold change vs veh, GMCL1 /// GMCL1P1 / RFU, AEBP2 / Fold change vs veh, AEBP2 / RFU, SNHG1 /// SNORD22 /// SNORD25 /// SNORD26 /// SNORD27 /// SNORD28 /// SNORD29 /// SNORD31 / Fold change vs veh, SNHG1 /// SNORD22 /// SNORD25 /// SNORD26 /// SNORD27 /// SNORD28 /// SNORD29 /// SNORD31 / Fold change (Aza/veh), C12orf56 (ProbeSet 11735607_a_at) / Fold change (ACY-1035/veh), C12orf56 (ProbeSet 11735607_a_at) / Fold change (Aza/veh), FGFR1OP (ProbeSet 11751329_s_at) / Fold change (ACY-1035/veh), FGFR1OP (ProbeSet 11751329_s_at) / Fold change (Aza/veh), VPS36 (ProbeSet 11739960_a_at) / Fold change (ACY-1035/veh), VPS36 (ProbeSet 11739960_a_at) / RFU SYPL1 (11715823_x_at) / Fold change /veh SYPL1 (11715823_x_at) / RFU IGFBP7 (11715501_s_at) / Fold change /veh IGFBP7 (11715501_s_at) / RFU REEP3 (11722064_at) / Fold change /veh REEP3 (11722064_at) / RFU IGLL1 (11728026_x_at) / Fold change /veh IGLL1 (11728026_x_at): dose or concentration left out as unconfirmed
Conditions: MV-4-11 cells, 48 hours

Nc1ncn([C@@H]2O[C@H](CO)[C@@H](O)[C@H]2O)c(=O)n1 [azacitidine]
Fold change /veh ANKRD19P (11752326_a_at): 1.10
